Values of other authors as cited in PubChem BioAssay AID1259409 (Chemical Carcinogenesis Research Information System (CCRIS), 2018).

System: rodent chemically induced tumor inhibition, incidence and multiplicity
Experiment: CCRIS tumor inhibitor studies

O=C1OC(c2ccc(O)cc2)Cc2cccc(O)c21 (configuration not stated)
tumour outcome (control, treated, inhibition, significance) (Carcinogen: AZOXYMETHANE [25843-45-2], Dose [Inhibitor]: 200 PPM IN DIET FOR 4 WK BEGINNING 1 WK PRIOR TO FIRST CARCINOGEN DOSE (STUDY DURATION: 35 WK), Route [Inhibitor]: ORAL, Species: RAT, Strain/Sex: F344/MALE, Target Tissue: Type of Lesion: COLON: ADENOMA, Dose [Carcinogen]: 15 MG/KG BW 1X/WK FOR 3 WK (STUDY DURATION: 35 WK), Promoter: NONE): 6/28 (21%), 2/29 (7%), 67%, not significant
tumour outcome (control, treated, inhibition, significance) (Carcinogen: AZOXYMETHANE [25843-45-2], Dose [Inhibitor]: 200 PPM IN DIET FOR 4 WK BEGINNING 1 WK PRIOR TO FIRST CARCINOGEN DOSE (STUDY DURATION: 35 WK), Route [Inhibitor]: ORAL, Species: RAT, Strain/Sex: F344/MALE, Target Tissue: Type of Lesion: COLON: CARCINOMA, Dose [Carcinogen]: 15 MG/KG BW 1X/WK FOR 3 WK (STUDY DURATION: 35 WK), Promoter: NONE): 8/28 (29%), 10/29 (34%), -17%, not significant
tumour outcome (control, treated, inhibition, significance) (Carcinogen: AZOXYMETHANE [25843-45-2], Dose [Inhibitor]: 200 PPM IN DIET FOR 4 WK BEGINNING 1 WK PRIOR TO FIRST CARCINOGEN DOSE (STUDY DURATION: 35 WK), Route [Inhibitor]: ORAL, Species: RAT, Strain/Sex: F344/MALE, Target Tissue: Type of Lesion: SMALL INTESTINE: CARCINOMA, Dose [Carcinogen]: 15 MG/KG BW 1X/WK FOR 3 WK (STUDY DURATION: 35 WK), Promoter: NONE): 7/28 (25%), 4/29 (14%), 44%, not significant

Clc1cccc(-c2ccc(Cl)c(Cl)c2Cl)c1Cl
tumour outcome (control, treated, inhibition, significance) (Carcinogen: DIETHYLNITROSAMINE, 55-18-5, Dose [Inhibitor]: 100 PPM IN DIET FOR 6 WK PRIOR TO CARCINOGEN DOSE (STUDY DURATION: 48 WK), Route [Inhibitor]: ORAL, Species: FISH, Strain/Sex: MT. SHASTA RAINBOW/MALE, FEMALE, Target Tissue: Type of Lesion: LIVER: HEPATOCELLULAR CARCINOMA AND HEPATOCHOLANGIOCELLULAR CARCINOMA, Dose [Carcinogen]: 250 PPM IN AQUEOUS SOLUTION FOR 24 HR, Promoter: NONE USED): 105/131 (80%), 112/140 (80%), 0%, not significant

CN=C(NC#N)NCCSCc1nc[nH]c1C
tumour outcome (control, treated, inhibition, significance) (Carcinogen: 7,12-DIMETHYLBENZ[A]ANTHRACENE, 57-97-6, Dose [Inhibitor]: 0, 10 MG A WK IN DRINKING WATER BEGINNING 1 WK POST CARCINOGEN DOSE AND CONTINUING FOR DURATION OF STUDY (STUDY DURATION, Route [Inhibitor]: ORAL, Species: MOUSE, Strain/Sex: SENCAR/MALE, Target Tissue: Type of Lesion: SKIN: PAPILLOMA, Dose [Carcinogen]: 100 NMOL IN 200 µL ACETONE ONCE, Promoter: 12-O-TETRADECANOYLPHORBOL-13-ACETATE, 16561-29-8): 95%, 100%, -5%, not calculated
tumour outcome (control, treated, inhibition, significance) (Carcinogen: N-METHYL-N'-NITRO-N-NITROSOGUANIDINE, 70-25-7, Dose [Inhibitor]: 10 MG/KG BW IN DEPOT FORM 1/2 D BEGINNING 1 WK POST LAST CARCINOGEN DOSE FOR DURATION OF STUDY (STUDY DURATION: 52 WK), Route [Inhibitor]: SUBCUTANEOUS, Species: RAT, Strain/Sex: WISTAR/MALE, Target Tissue: Type of Lesion: STOMACH: ADENOCARCINOMA, Dose [Carcinogen]: 50 UG/ML IN DRINKING WATER FOR 25 WK, Promoter: NONE USED): 12/19 (63%), 13/19 (68%), -8%, not calculated
tumour outcome (control, treated, inhibition, significance) (Carcinogen: N-METHYL-N'-NITRO-N-NITROSOGUANIDINE, 70-25-7, Dose [Inhibitor]: 20 MG/KG BW IN DEPOT FORM 1/2 D BEGINNING 1 WK POST LAST CARCINOGEN DOSE FOR DURATION OF STUDY (STUDY DURATION: 52 WK), Route [Inhibitor]: SUBCUTANEOUS, Species: RAT, Strain/Sex: WISTAR/MALE, Target Tissue: Type of Lesion: STOMACH: ADENOCARCINOMA, Dose [Carcinogen]: 50 UG/ML IN DRINKING WATER FOR 25 WK, Promoter: NONE USED): 12/19 (63%), 11/19 (58%), 8%, not calculated
